The assay addresses T1, human V2 receptor (Homo sapiens, UniProt P30518).
T1 construct: A DNA fragment containing a human V2 receptor code region; expressed in transfected cells
The assay can be described thus: cAMP production test in V2 receptor expression cell. Type of assay: cell-based. To be noted: for EC50: human V2 receptor expression cell, 30 minutes at room temperature, HTRF cAMP kit; for Emax: maximum reaction by 8-AVP assumed to be 100%. On the procedure:
Pharmacological Test (1) Preparation of Human V2 Receptor Expression Cell
A DNA fragment containing a human V2 receptor code region was inserted into an expression vector of a vertebrate cell. The expression vector was genetically introduced into an animal cell to have the human V2 receptor express in the surface of the cell. Since the expression vector could express a neo gene which functions as a G418 resistance marker, it was cultured in a G418-containing medium, thereby selectively obtaining a human V2 receptor stable expression cell.
(2) cAMP Production Test in V2 Receptor Expression Cell
The human V2 receptor expression cell, which was prepared in the above described method, was recovered and resuspended into an incubation buffer (F-12 medium, 20 mM HEPES), and 5 μl of the cell was then divided into a 384-well plate with a density of 15,000 cells/well. 5 μl of a compound solution or an 8-AVP ((Arg^8)-vasopressin) solution, which was diluted with an assay buffer (F-12 medium, 20 mM HEPES, 1 mM IBMX), (total 10 μl/well) was added to each well (final concentration: 15,000 cells/well, 500 μM IBMX, 1% dimethyl sulfoxide). After incubation at room temperature for 30 minutes, a cAMP production amount was measured using a commercially available HTRF cAMP kit (Cisbio Inc.) according to the described protocol. Excel Fit was used in order to find EC50 and Emax values of the test compound.

In patent US9586905B2, “Benzoazepine derivative and medical use thereof” (SANWA KAGAKU KENKYUSHO CO., LTD., priority 2012, dated 2017) one finds EC50 and Emax data, which are given here for 38 compounds.

T1 sequence (P30518 whole entry, the tested form may be a part): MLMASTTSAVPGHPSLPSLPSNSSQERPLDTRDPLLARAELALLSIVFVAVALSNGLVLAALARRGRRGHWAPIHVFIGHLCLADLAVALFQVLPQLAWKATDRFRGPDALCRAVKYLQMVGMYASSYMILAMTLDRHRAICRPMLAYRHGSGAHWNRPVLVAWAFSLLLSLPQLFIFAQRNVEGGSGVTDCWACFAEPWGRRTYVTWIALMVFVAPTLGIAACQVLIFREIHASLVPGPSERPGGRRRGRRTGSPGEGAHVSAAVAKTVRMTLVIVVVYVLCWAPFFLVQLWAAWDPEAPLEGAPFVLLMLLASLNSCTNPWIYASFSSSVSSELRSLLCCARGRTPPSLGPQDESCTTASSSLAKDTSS

The EC50 is the concentration at which the effect is half-maximal. A higher EC50 goes with lower potency in that assay. A word on the Emax: it is the greatest response seen or fitted, relative to the assay's reference. Compound `COC(=O)C1(C)CCN(C(=O)c2ccc(N3CCCC3)cc2Cl)c2ccccc2C1` (racemic) [Example 31] showed an EC50 of 7.9 nM and a maximal effect (Emax) of 102%.
For the compound `CCCOc1ccc(C(=O)N2CCC(C)(C(=O)OC)Cc3ccccc32)c(Cl)c1` (racemic) [Example 32], the midpoint of the response, the EC50, lay at 9.1 nM and the Emax came to 104%.
For `COC(=O)C1(C)CCN(C(=O)c2ccc(-c3ncco3)cc2Cl)c2ccccc2C1` (racemic) [Example 33], in that order: 20 nM and 96%.
For `COC(=O)C1(C)CCN(C(=O)c2ccc(-n3cccn3)cc2Cl)c2ccccc2C1` (racemic) [Example 34], in that order: 9.8 nM and 98%.
The compound `COC(=O)C1Cc2ccccc2N(C(=O)c2ccc(N3CCCC3)cc2Cl)CC1C` (racemic) [Example 42] displayed a concentration for a half-maximal effect (EC50) of 0.8 nM and a maximum response (Emax) of 103%.
As to `COC(=O)C1(F)Cc2ccccc2N(C(=O)c2ccc(N3CCCC3)cc2Cl)CC1C` (racemic) [Example 43], the midpoint of the response, the EC50, lay at 0.1 nM and the Emax amounted to 102%.
Taken in the same sequence, the figures for `CC1(C(=O)O)CCN(C(=O)c2ccc(N3CCCC3)cc2Cl)c2ccccc2C1` (racemic) [Example 49, 1-[2-chloro-4-(pyrrolidine-1-yl)benzoyl)-4-methyl-2,3,4,5-tetrahydro-1H-benzo[b]azepine-4-carboxylic acid] were 0.5 nM and 102%.
As to `CCCOc1ccc(C(=O)N2CCC(C)(C(=O)O)Cc3ccccc32)c(Cl)c1` (racemic) [Example 50, 1-(2-chloro-4-propoxybenzoyl)-4-methyl-2,3,4,5-tetrahydro-1H-benzo[b]azepine-4-carboxylic acid], the concentration giving a half-maximal response (EC50) is 0.9 nM and the Emax amounted to 100%.
Taken in the same sequence, the figures for `CC1(C(=O)O)CCN(C(=O)c2ccc(-c3ncco3)cc2Cl)c2ccccc2C1` (racemic) [Example 51, 1-[2-chloro-4-(oxazol-2-yl)benzoyl]-4-methyl-2,3,4,5-tetrahydro-1H-benzo[b]azepine-4-carboxylic acid] were 6 nM and 73%.
For `CC1(C(=O)O)CCN(C(=O)c2ccc(-n3cccn3)cc2Cl)c2ccccc2C1` (racemic) [Example 52, 1-[2-chloro-4-(1H-pyrazol-1-yl)benzoyl]-4-methyl-2,3,4,5-tetrahydro-1H-benzo[b]azepine-4-carboxylic acid], in that order: 3.9 nM and 85%.
Compound `Cc1ccn(-c2ccc(C(=O)N3C[C@@H](C)C(C)(C(=O)O)Cc4ccccc43)c(C)c2)n1` (mixture of isomers) [Example 55, (3S)-3,4-dimethyl-1-[2-methyl-4-(3-methyl-1H-pyrazol-1-yl)benzoyl]-2,3,4,5-tetrahydro-1H-benzo[b]azepine-4-carboxylic acid] returned an EC50 of 0.2 nM and an Emax of 101%.
For `C[C@@H]1CN(C(=O)c2ccc(N3CCCC3)cc2Cl)c2ccccc2CC1C(=O)O` (mixture of isomers) [Example 56, (3S)-1-[2-chloro-4-(pyrrolidine-1-yl)benzoyl]-3-methyl-2,3,4,5-tetrahydro-1H-benzo[b]azepine-4-carboxylic acid], in that order: 0.1 nM and 102%.
For `C[C@@H]1CN(C(=O)c2ccc(N3CCCC3)cc2Cl)c2ccccc2CC1(F)C(=O)O` (mixture of isomers) [Example 57, (3R)-1-[2-chloro-4-(pyrrolidine-1-yl)benzoyl]-4-fluoro-3-methyl-2,3,4,5-tetrahydro-1H-benzo[b]azepine-4-carboxylic acid], in that order: 0.2 nM and 102%.
`Cc1cc(N2CCC(C)C2)ccc1C(=O)N1CCC(C)(C(=O)NCC(N)=O)Cc2ccccc21` (racemic) [Example 69] gave a 50% effective concentration (EC50) of 0.53 nM and an Emax of 101%.
For `CC(C)C(NC(=O)C1(C)CCN(C(=O)c2ccc(OCCCF)cc2Cl)c2ccccc2C1)C(N)=O` (racemic) [Example 73], in that order: 1.9 nM and 100%.
Taken in the same sequence, the figures for `Cc1nnc(NC(=O)C2(C)CCN(C(=O)c3ccc(N4CCCC4)cc3Cl)c3ccccc3C2)o1` (racemic) [Example 79] were 0.9 nM and 100%.
Taken in the same sequence, the figures for `CCNC(=O)CNC(=O)C1(C)CCN(C(=O)c2ccc(N3CCCC3)cc2Cl)c2ccccc2C1` (racemic) [Example 80] were 2.8 nM and 101%.
With `CCN(CC)C(=O)CNC(=O)C1(C)CCN(C(=O)c2ccc(N3CCCC3)cc2Cl)c2ccccc2C1` (racemic) [Example 81], the EC50 stood at 6.6 nM and the maximal effect (Emax) stood at 100%.
Taken in the same sequence, the figures for `CC1(C(=O)NCc2nnco2)CCN(C(=O)c2ccc(N3CCCC3)cc2Cl)c2ccccc2C1` (racemic) [Example 82] were 1.1 nM and 101%.
Taken in the same sequence, the figures for `CCCOc1ccc(C(=O)N2CCC(C)(C(=O)NC(C)CO)Cc3ccccc32)c(Cl)c1` (racemic) [Example 83] were 3.4 nM and 100%.
Taken in the same sequence, the figures for `CCCOc1ccc(C(=O)N2CCC(C)(C(=O)NCC(N)=O)Cc3ccccc32)c(Cl)c1` (racemic) [Example 84] were 2.5 nM and 100%.
`CC(CO)NC(=O)C1(C)CCN(C(=O)c2ccc(-c3ncco3)cc2Cl)c2ccccc2C1` (racemic) [Example 85] returned an EC50 of 15 nM and a maximum response (Emax) of 94%.
For `CC1(C(=O)NCC(N)=O)CCN(C(=O)c2ccc(-c3ncco3)cc2Cl)c2ccccc2C1` (racemic) [Example 86], in that order: 17 nM and 88%.
The compound `CC(CO)NC(=O)C1(C)CCN(C(=O)c2ccc(-n3cccn3)cc2Cl)c2ccccc2C1` (racemic) [Example 87] gave an EC50 of 9.5 nM and a maximal response (Emax) of 97%.
For `CC1(C(=O)NCC(N)=O)CCN(C(=O)c2ccc(-n3cccn3)cc2Cl)c2ccccc2C1` (racemic) [Example 88], in that order: 8.1 nM and 93%.
In the case of `Cc1cc(N2CCC(C)C2)ccc1C(=O)N1CCC(F)(C(N)=O)Cc2ccccc21` (racemic) [Example 94], the concentration giving a half-maximal response (EC50) came to 0.41 nM and the Emax amounted to 101%.
`Cc1cc(N2CCC(C)C2)ccc1C(=O)N1CCC(F)(C(=O)NCC(N)=O)Cc2ccccc21` (racemic) [Example 95]: the EC50 amounted to 0.99 nM and the maximal effect (Emax) came to 102%.
Turning to `Cc1ccn(-c2ccc(C(=O)N3CC(C)C(C)(C(=O)NCC(N)=O)Cc4ccccc43)c(C)c2)n1` (racemic) [Example 97], the EC50 was 0.56 nM and the Emax was determined as 102%.
`CC(CO)NC(=O)C1Cc2ccccc2N(C(=O)c2ccc(N3CCCC3)cc2Cl)CC1C` (racemic) [Example 98]: the EC50 was 1 nM and the Emax amounted to 101%.
For `CC1CN(C(=O)c2ccc(N3CCCC3)cc2Cl)c2ccccc2CC1C(=O)NCC(N)=O` (racemic) [Example 99], in that order: 0.4 nM and 102%.
Taken in the same sequence, the figures for `CC(CO)NC(=O)C1(F)Cc2ccccc2N(C(=O)c2ccc(N3CCCC3)cc2Cl)CC1C` (racemic) [Example 100] were 3 nM and 100%.
Taken in the same sequence, the figures for `CC1CN(C(=O)c2ccc(N3CCCC3)cc2Cl)c2ccccc2CC1(F)C(=O)NCC(N)=O` (racemic) [Example 101] were 1.1 nM and 102%.
`COC(=O)C1(C)CCN(C(=O)c2ccc(-n3ccc(C)n3)cc2C(F)(F)F)c2ccccc2C1` (single isomer, unassigned) [Example 35] had a concentration for a half-maximal effect (EC50) of 1.4 nM and a maximal response (Emax) of 102%.
Taken in the same sequence, the figures for `COC(=O)C1(F)CCN(C(=O)c2ccc(N3CCCC3)cc2C)c2ccccc2C1` (single isomer, unassigned) [Example 38] were 0.06 nM and 101%.
Taken in the same sequence, the figures for `Cc1cc(N2CCCC2)ccc1C(=O)N1CCC(C)(C(=O)O)Cc2ccccc21` (single isomer, unassigned) [Example 45, 4-methyl-1-[2-methyl-4-(pyrrolidine-1-yl)benzoyl]-2,3,4,5-tetrahydro-1H-benzo[b]azepine-4-carboxylic acid] were 0.34 nM and 102%.
As to `Cc1cc(N2CCCC2)ccc1C(=O)N1CCC(F)(C(=O)O)Cc2ccccc21` (single isomer, unassigned) [Example 54, 4-fluoro-1-[2-methyl-4-(pyrrolidine-1-yl)benzoyl]-2,3,4,5-tetrahydro-1H-benzo[b]azepine-4-carboxylic acid], the EC50 stood at 0.28 nM and the Emax is 102%.
`Cc1cc(N2CCCC2)ccc1C(=O)N1CCC(C)(C(=O)NC(C)C(N)=O)Cc2ccccc21` (single isomer, unassigned) [Example 68] displayed a 50% effective concentration (EC50) of 0.74 nM and a maximum response (Emax) of 102%.
Consider `CC(NC(=O)C1(C)CCN(C(=O)c2ccc(OCC(F)(F)F)cc2Cl)c2ccccc2C1)C(N)=O` (single isomer, unassigned) [Example 76], for which the concentration giving a half-maximal response (EC50) was found to be 0.99 nM and the maximal response (Emax) was determined as 102%.
